Tested on: GST-tagged Cn
Experiment: PEPperPRINT peptide microarray binding assay with GST-tagged Cn
Method in brief: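 Qualitative binding: peptides printed on a PEPperPRINT microarray were incubated overnight at 4 °C with 1 mg/ml GST-tagged Cn, then detected with Alexa-Fluor 647 anti-GST antibody. Log fluorescence was baseline-corrected, averaged over duplicate spots, Z-normalized and averaged across five repeats.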

[1] = GST-tagged Cn, max over the spots on the chip (two locations)
[2] = GST-tagged Cn, mean over the spots on the chip (two locations)
[3] = GST-tagged Cn, max over the chip spots listed under Location on chip
[4] = GST-tagged Cn, mean over the chip spots listed under Location on chip
[5] = GST-tagged Cn, max over the chip locations
[6] = GST-tagged Cn, mean over the chip locations
[7] = max over the chip locations listed for the peptide (two spots)
[8] = mean over the chip locations listed for the peptide (two spots)
[9] = GST-tagged Cn, max over the spots named in Location on chip
[10] = GST-tagged Cn, mean over the spots named in Location on chip
[11] = max over the spots listed under Location on chip
[12] = mean over the spots listed under Location on chip

How did the “Chip Fluorescence (max)” value [1] turn out when KVRTALYFTWNLTERG [Seqshuffled_9698] was run?
Its value is 1.275.

What about the “Chip Fluorescence (mean)” value [2] of the same sequence?
Its value is 0.3801.

Which results are given for KVTTLKSVSPAIAAPE [Seqshuffled_1741]?
Chip Fluorescence (max) [3]: 0.7857; Chip Fluorescence (mean) [4]: -0.5033

Which “Chip Fluorescence (max)” value [5] does the source give for LAFALPAFSFAAMKSA [SeqRBM_4599] here?
The value was -0.5301.

And the “Chip Fluorescence (mean)” value [6]?
The value was -2.0266.

What does the source list for “LATQVPTFEITSPNSA [SeqNRG2_Pan_troglodytes]”?
Chip Fluorescence (max) [5]: 0.1795; Chip Fluorescence (mean) [6]: -0.588

LCVTGRERIAEDWLRP [Seqrandom_9974] was tested. Which “Chip Fluorescence (max)” value [1] did it give?
The value was 1.2052.

What about the “Chip Fluorescence (mean)” value [2] of the same sequence?
The value was 0.7765.

Which “Chip Fluorescence (max)” value [7] does the source give for LCWFLDYRVVLPFFAY [Seqshuffled_7970] here?
Its value is 4.66.

What about the “Chip Fluorescence (mean)” value [8] of the same sequence?
Its value is 1.641.

For LDEAIPEIVISPPETP [SeqRBMlowT_4410], which “Chip Fluorescence (max)” value [7] is on record?
The value was 9.285.

What about the “Chip Fluorescence (mean)” value [8] of the same sequence?
The value was 1.035.

How did the “Chip Fluorescence (max)” value [1] turn out when LEAAPPDPDRKPPNII [Seqshuffled_9311] was run?
Its value is 1.299.

What about the “Chip Fluorescence (mean)” value [2] of the same sequence?
The value was -0.4919.

Which results are given for LGRMSPQSTTQALPST [Seqshuffled_9332]?
Chip Fluorescence (max) [9]: 1.718; Chip Fluorescence (mean) [10]: -0.1183

Which results are given for LHPTCDPFRCSTHQSH [Seqshuffled_9610]?
Chip Fluorescence (max) [1]: 1.254; Chip Fluorescence (mean) [2]: 0.008632

Which “Chip Fluorescence (max)” value [1] does the source give for “LKDEFPDVRLHIISKL [SeqRCN1_Arthroderma_otae]” here?
Its value is 1.269.

What about the “Chip Fluorescence (mean)” value [2] of the same sequence?
Its value is 0.6031.

For LKDEFPEVRLNIISNL [SeqRBMlowT_1004], which “Chip Fluorescence (max)” value [1] is on record?
The value was 1.029.

What about the “Chip Fluorescence (mean)” value [2] of the same sequence?
Its value is 0.2404.

What does the source list for LKDEFPEVRLNIISSL [SeqRBMlowT_1023]?
Chip Fluorescence (max) [11]: 2.696; Chip Fluorescence (mean) [12]: 0.6595

Which results are given for LKDEFSDVRLNIISNL [SeqRBMlowT_1878]?
Chip Fluorescence (max) [3]: 0.7069; Chip Fluorescence (mean) [4]: 0.04327

What does the source list for LKDEIPEVRLNIISAL [SeqRBMlowT_1072]?
Chip Fluorescence (max) [11]: 2.998; Chip Fluorescence (mean) [12]: 0.7654

For LKDEIPEVRLNIISNL [SeqRBMlowT_1003], which “Chip Fluorescence (max)” value [7] is on record?
Its value is 3.957.

What about the “Chip Fluorescence (mean)” value [8] of the same sequence?
The value was 2.453.

Which results are given for LKDEIPEVRLNIISSL [SeqRBMlowT_1013]?
Chip Fluorescence (max) [9]: 1.476; Chip Fluorescence (mean) [10]: 0.5558

For LKDESPEVRLNIISKL [SeqRBMlowT_3831], which “Chip Fluorescence (max)” value [1] is on record?
Its value is 1.167.

What about the “Chip Fluorescence (mean)” value [2] of the same sequence?
The value was 0.2257.

Which results are given for LKDESPEVRLNIISSL [SeqRBMlowT_1855]?
Chip Fluorescence (max) [11]: 3.106; Chip Fluorescence (mean) [12]: 1.095

“LKDEVPEVRLNIISNL [SeqRCN1_Ramazzottius_varieornatus]” was tested. Which “Chip Fluorescence (max)” value [3] did it give?
Its value is 0.4089.

And the “Chip Fluorescence (mean)” value [4]?
The value was -0.7319.

Which “Chip Fluorescence (max)” value [3] does the source give for LKDEVPEVRLNIISSL [SeqRBMlowT_4107] here?
The value was 0.9435.

And the “Chip Fluorescence (mean)” value [4]?
The value was -0.1625.

What does the source list for LKDQFPKVRLNIIDAP [SeqRBM_543]?
Chip Fluorescence (max) [11]: 2.925; Chip Fluorescence (mean) [12]: 0.6756

How did the “Chip Fluorescence (max)” value [9] turn out when LKKTYLRREMHGCYNH [Seqrandom_9958] was run?
Its value is 1.4154.

And the “Chip Fluorescence (mean)” value [10]?
Its value is 0.777.

What does the source list for LLDDVPDVVVHPPEED [SeqRBMlowT_144]?
Chip Fluorescence (max) [7]: 4.37; Chip Fluorescence (mean) [8]: 2.238

LLLKIPSLNINDVEAS [SeqRBM_1919] was tested. Which “Chip Fluorescence (max)” value [5] did it give?
Its value is -0.781.

And the “Chip Fluorescence (mean)” value [6]?
The value was -1.379.

Which results are given for LMVSPPEITISPAELH [SeqRBM_5585]?
Chip Fluorescence (max) [11]: 3.353; Chip Fluorescence (mean) [12]: 0.761

How did the “Chip Fluorescence (max)” value [3] turn out when LNAIQEAQDKTDIRNK [Seqshuffled_9749] was run?
The value was 0.5862.

What about the “Chip Fluorescence (mean)” value [4] of the same sequence?
Its value is -1.046.

Which “Chip Fluorescence (max)” value [5] does the source give for LNLEIPEVRLNIISAL [SeqRBMlowT_8463] here?
The value was 0.2778.

What about the “Chip Fluorescence (mean)” value [6] of the same sequence?
Its value is -0.136.

Which “Chip Fluorescence (max)” value [1] does the source give for “LNLKIPEIDSSDMSAH [SeqFLNA_Erinaceus_europaeus]” here?
The value was 1.157.

What about the “Chip Fluorescence (mean)” value [2] of the same sequence?
Its value is 0.3599.

LNLKIPEVRLNIISAL [SeqRBMlowT_1835] was tested. Which “Chip Fluorescence (max)” value [5] did it give?
Its value is 0.09786.

And the “Chip Fluorescence (mean)” value [6]?
Its value is -0.5761.

With LNLKIPIVLLNIISAI [SeqRBM_9387] as the sequence, how does the “Chip Fluorescence (max)” value [9] read?
Its value is 1.375.

What about the “Chip Fluorescence (mean)” value [10] of the same sequence?
Its value is 0.2818.

For LNLKIPTIAKADITAT [SeqRBM_4458], which “Chip Fluorescence (max)” value [9] is on record?
Its value is 1.846.

And the “Chip Fluorescence (mean)” value [10]?
The value was -0.3422.

Which results are given for LNRIEIFVTFNFTRNS [Seqshuffled_5110]?
Chip Fluorescence (max) [11]: 3.363; Chip Fluorescence (mean) [12]: 0.477

How did the “Chip Fluorescence (max)” value [3] turn out when LSARYPEIVVSVPEHN [SeqRBM_9361] was run?
Its value is 0.7337.

What about the “Chip Fluorescence (mean)” value [4] of the same sequence?
The value was -0.349.

Which results are given for LSDNRPNVRMEAPMVQ [SeqRBM_9917]?
Chip Fluorescence (max) [5]: 0.09814; Chip Fluorescence (mean) [6]: -0.3526

Which results are given for “LSLKIPEISIQDMTAQ [SeqFLNA_Macaca_mulatta]”?
Chip Fluorescence (max) [1]: 1.124; Chip Fluorescence (mean) [2]: -0.12

How did the “Chip Fluorescence (max)” value [1] turn out when LTDAAPEVVVSKPEHN [SeqRBMlowT_7696] was run?
Its value is 1.26.

What about the “Chip Fluorescence (mean)” value [2] of the same sequence?
Its value is 0.2646.

For LTWTSLRYSVNDDKNT [Seqshuffled_9363], which “Chip Fluorescence (max)” value [7] is on record?
The value was 15.2815.

And the “Chip Fluorescence (mean)” value [8]?
Its value is 4.411.

Source: publication PMC9928118, “Funneling modulatory peptide design with generative models: Discovery and characterization of disruptors of calcineurin protein-protein interactions” (PLOS Computational Biology, 2023)
